Experimental findings from patent publication EP0402469B1, “CATECHOL COMPOUNDS, PROCESS FOR THEIR PREPARATION AND PHARMACEUTICAL PREPARATION CONTAINING SAME” (TERUMO KABUSHIKI KAISHA, priority 1988, dated 1989) are described below.

For one test, the system named is Wistar type male rat. Briefly: Activity to resist growth of ulcer (ethanol hydrochloric acid induced gastric injury). Type of test: in vivo. The note with it: 30mg/kg orally, 1 hour before oral ethanol hydrochloric acid, ulcer index 1 hour later. The procedure: A Wistar type male rat (body weight 150 to 200 g) was fasted for 24 hours, then orally administered with a catechol compound according with the present invention and, on elapse of 1 hour thereafter, orally administered with ethanol hydrochloric acid (having 150 mM hydrochloric acid contained in 60% ethanol) at a rate of 0.5 ml/100 g of body weight.
After 1 hour following the oral administration of ethanol hydrochloric acid, the rat was sacrified with ether. The stomach was excited from the corpse, treated with formalin, and visually examined to measure lengths of injuries generated on the glanular part of the stomach. The total of injuries was reported as an ulcer index of the rat in question.
The term "ratio of inhibiting formation of ulcer (%)" as used in the table refers to a numerical value obtained by subtracting the ulcer index of a rat orally administered with a given catechol compound according with the present invention from the ulcer index of a rat not orally administered with catechol compound and multiplying the difference by 100.
Consider `CCCCCCCCCC(O)CC(=O)CCc1ccc(O)c(O)c1` (stereo not drawn) [Example 4, 1-(3,4-hydroxyphenyl)-5-hydroxytetradecan-3-one], for which the “Ratio of inhibiting formation of ulcer (%)” value worked out at 84.4%.

Still in this test, the particulars now being: 30mg/kg orally, 1 hour before oral ethanol hydrochloric acid, ulcer index 1 hour later, read-out: Ratio of inhibiting formation of ulcer (%).
As for `CCCCCCCCCC(=O)CC(=O)C=Cc1ccc(O)c(O)c1` [Example 1, 1-(3,4-dihydroxyphenyl)-1-tetradecen-3,5-dione], the inhibition in vivo at 30 mg/kg stood at 82.4%.

For the compound `CCCCCCCCCC(=O)CC(=O)CCc1ccc(O)c(O)c1` [Example 2, 1-(3,4-dihydroxyphenyl)-3,5-tetradecane dione], the inhibition in vivo at 30 mg/kg turned out to be 92.1%.

Turning to `CCCCCCCC(=O)CC(=O)C=Cc1ccc(O)c(O)c1` [Example 7, 1-(3,4-dihydroxyphenyl)-1-dodecen-3,5-dione], the inhibition in vivo at 30 mg/kg was 85.7%.

For the compound `CCCCCCCC(=O)CC(=O)CCc1ccc(O)c(O)c1` [Example 8, 1-(3,4-dihydroxyphenyl)-3,5-dodecane dione], the inhibition in vivo at 30 mg/kg was 88.3%.

On to `CCCCCC(=O)CC(=O)C=Cc1ccc(O)c(O)c1` [Example 9, 1-(3,4-dihydroxyphenyl)-1-decen-3,5-dione], for which the inhibition in vivo at 30 mg/kg turned out to be 77.9%.

With `CCCCCC(=O)CC(=O)CCc1ccc(O)c(O)c1` [Example 10, 1-(3,4-dihydroxyphenyl)-3,5-decane dione], the inhibition in vivo at 30 mg/kg is 84.6%.

As for `CCCC(=O)CC(=O)C=Cc1ccc(O)c(O)c1` [Example 11, 1-(3,4-dihydroxyphenyl)-1-octen-3,5-dione], the inhibition in vivo at 30 mg/kg turned out to be 58.7%.

Turning to `CCCC(=O)CC(=O)CCc1ccc(O)c(O)c1` [Example 12, 1-(3,4-dihydroxyphenyl)-3,5-octadione], the inhibition in vivo at 30 mg/kg was found to be 81.8%.
